# Values quoted from earlier work as cited in patent publication US10258574B2, “Method of preparing itraconazole preparation” (CHANGZHOU PHARMACEUTICAL FACTORY CO., LTD., priority 2015, dated 2019).
# Settings: rat; clinical relevance yet unclear
substance,measurement,value
2-hydroxypropyl-β-cyclodextrin,carcinogenicity finding,cause pancreatic cancer
